A word on the EC50: it is the concentration at which the effect is half-maximal. Low readings indicate a more potent agent, high ones a less potent agent. The solubility is the concentration that dissolves in the medium under given conditions. Higher therefore signals a readily soluble substance.

In brackets after ≈: the same amount, converted by molar mass.

From patent US20250326779A1, “ANTI-HIV COMPOUNDS” (priority 2024, published 2025) come the findings set out here.

The subject of one data set is HIV-1 IIIB strain. Kind of data set: MT-4 HIV Wild Type Virus Infection Assay (IIIB Virus). The data set is classed as cell-based. The settings on record: Human immunodeficiency virus 1, MT4, 120 h; MT-4 cells acutely infected with HIV-1 IIIB, 5 day incubation, Cell-titer glo. As for the experimental part:
MT-4 HIV Wild Type Virus Infection Assay (IIIB Virus)
Test compounds and controls were serially diluted and spotted in replicate into 384 well black assay plates via acoustic transfer (Echo). MT-4 cells were grown in batch, centrifuged and resuspended into fresh CCM media (RPMI w/10% FBS, 1% PS) at 2×10^6 cells/ml. MT-4 cells were acutely infected with HIV-1 IIIB strain. The size of each infection mix was scaled by the number of sample plates to be tested. Each infection mix was transferred into 5 mL closed tubes and nutated rapidly on a shaker at 37° C. incubator for 1 hour. The infection mixes were then diluted 25× in fresh cell culture media and then added to assay plates at 40 μL per well using a ViaFlo 384 pipettor. After 5 day incubation at 37° C. in a C02 incubator, assay plates were processed with Cell-titer glo reagent using a ViaFlo 384 with an addition/mixing program. Plates were read immediately on Envision reader. Assay signals were plotted and dose response curves generated to determine individual compound EC50s.

For data set [1], the target named is T1, bovine intestinal alkaline phosphatase (Bos taurus, UniProt P19111).
T1 construct: purchased Millipore Sigma (St. Louis, MO) or Thermo Fisher Scientific (Waltham, MA)
T1 sequence (P19111 20-506 limits assumed): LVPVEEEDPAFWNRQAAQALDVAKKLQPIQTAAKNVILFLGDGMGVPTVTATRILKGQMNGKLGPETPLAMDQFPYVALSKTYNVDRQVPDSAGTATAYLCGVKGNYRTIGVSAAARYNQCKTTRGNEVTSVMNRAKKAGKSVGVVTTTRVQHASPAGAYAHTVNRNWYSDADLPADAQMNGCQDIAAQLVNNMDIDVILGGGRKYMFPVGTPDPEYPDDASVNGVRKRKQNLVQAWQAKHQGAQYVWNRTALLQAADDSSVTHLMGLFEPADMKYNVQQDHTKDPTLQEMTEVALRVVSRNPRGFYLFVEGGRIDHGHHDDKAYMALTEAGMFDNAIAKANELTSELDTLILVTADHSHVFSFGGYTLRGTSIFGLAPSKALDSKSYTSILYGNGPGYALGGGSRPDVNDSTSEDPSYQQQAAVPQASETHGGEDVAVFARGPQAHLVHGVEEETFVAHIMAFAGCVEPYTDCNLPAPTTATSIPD
Description: BiALP: conversion by bovine intestinal alkaline phosphatase. The data set is classed as in vitro ADME. Conditions: remaining substrate after 60 min at 37° C., 2 μM substrate, 100 ng/mL iALP, Tris buffer pH 7.8. As for the experimental part:
Fosamprenavir and its parent compound (amprenavir) were purchased from Millipore Sigma (St. Louis, MO). Test compounds, Intermediate A, fosamprenavir, and amprenavir were each separately dissolved in dimethyl sulfoxide (DMSO) at a concentration of 10 mM to form stock solutions.
All other chemicals were purchased from Millipore Sigma (St. Louis, MO) and Thermo Fisher Scientific (Waltham, MA). The chemicals included purified bovine intestinal alkaline phosphatase as a lyophilized powder (specific activity: 101 diethanolamine units/mg solid). Internal Standard/Quench (IS/Q) was 100 nM labetalol in 99:1 (v/v) acetonitrile/formic acid.
Incubations were performed with Tris buffer alone (0.1 M Tris-HCl pH 7.8 containing 1 mM MgCl2 and 1 mM ZnCl2) or the same Tris buffer further containing 100 ng/mL iALP (0.01 units/mL). Triplicate 100 μL aliquots of Tris buffer±iALP were warmed to 37° C. and the reactions were initiated by the addition of the test compound or fosamprenavir to obtain final substrate concentrations of 2 μM. Incubations were then continued at 37° C. […] Aliquots (15 μL) of the diluted supernatants were analyzed by mass spectrometry as described below.
Quantification of the test compounds and fosamprenavir was performed by analyte/internal standard peak area ratios (PARs) with comparison to 2 μM Intermediate A and amprenavir, respectively. […]

A short description of data set [2]: Intestinal S9 Assay (human). The data set is classed as in vitro ADME. The settings on record: pooled intestinal S9 fraction, 1.0 mg/mL S9 protein, 2 μM substrate, TRIS pH 7.4, read-out: Human GI S9 T½. As to the method: (§1) Reagents. Stock solutions of test compounds in dimethyl sulfoxide (DMSO) having a final concentration of 10 mM were prepared and used in all experiments. Sekisui XenoTech (Kansas City, KS) provided pooled intestinal S9 fractions. All other chemicals were purchased from Sigma-Aldrich (St. Louis, MO) or VWR (West Chester, PA).
(§2) Intestinal S9 Assay: For each test compound, an aliquot of the test compound was added to S9 stock diluted with TRIS buffer (100 mM TRIS, 1 mM ZnCl2, 1 mM MgCl2), pH 7.4, to obtain an incubation protein concentration of 1.0 mg/mL. The incubation was initiated by the addition of the substrate to the S9 reaction mixture to a final concentration of 2 μM. […] After quenching, the plates were centrifuged at 3000×g for 30 minutes. 150 μL aliquots of each supernatant were transferred to new plates and 150 μL water was added. Aliquots (10 μL) of the prepared samples were analyzed on a Thermo Q-Exactive mass spectrometer as described below.
(§3) Liquid Chromatography-Mass Spectrometry: Quantification of test compounds and control substrate was performed by analyte/internal standard peak area ratio (PAR) values measured on a Thermo Q-Exactive mass spectrometer coupled to a Dionex UltiMate 3000 HPLC with a Leap Technologies HTC PAL autosampler. The column used for analysis was a Thermo Scientific Hypersil GOLD (1.9 μm particle size, 50×2.1 mm). […]

Data set [3] is described as follows: Intestinal S9 Assay (dog). The settings on record: pooled intestinal S9 fraction, 1.0 mg/mL S9 protein, 2 μM substrate, TRIS pH 7.4, read-out: Dog GI S9 T½. The data set is classed as in vitro ADME. As to the method:
as §1, §2, §3

The next data set is described as follows: pH 7 Stability Assay. The class given is physicochemical. Conditions: ACN/pH 7.4 buffer with 1% DMSO stock; 1/49.5/49.5% v/v DMSO stock/ACN/pH 7.4 buffer, UPLC 0-24 h; read-out: pH7 T½.
The nature of the next data set: Solubility in FaSSIF. The data set is classed as physicochemical. Conditions: 23 °C, thermodynamic from solid; FaSSIF pH 6.5, 5 mg/mL dose concentration, 2-hour incubation, ambient temperature. As to the method: Buffer Preparation: Fasted State Simulated Intestinal Fluid (FaSSIF): Simulated Intestinal Fluid (SIF) powder containing a complex of Taurocholate and Lecithin (4:1 molar ratio) was obtained from Biorelevant. […] The buffer was prepared with HPLC H2O.
Test Compounds: Each test compound was placed in a vial containing approximately 7 mg of material. Aliquots were weighed out for each assay media at each time point to be analyzed. The buffer was added to each vial such that the final dose concentration of 5 mg/mL was achieved. Samples were then vortexed for 5-10 seconds.
The plate was sealed with a pierceable heat seal and analyzed by HPLC-UV.

Description for pH 7 Stability Assay: pH 7 Stability Assay: A sample stock at approximately 10 mg/mL of each test compound was prepared with dimethyl sulfoxide (DMSO) in vials. […] Sample vials were prepared by adding 495 μL ACN into a UPLC vial followed by 495 μL pH 7.4 buffer. Then 10 μL test compound stock solution from the first step was added to that UPLC vial. 1000 uL 50/50% v/v ACN/Water was used as diluent blank.
Metabolic stabilities were determined by measuring the rates of disappearance of test compound and positive control substrate. • Data (% of substrate remaining) were plotted on a semi-log scale and fitted using an exponential decline model:
[formula] • Assuming a first-order reaction, the slope (k) is extrapolated from the aforementioned plotted data.

Regarding `COC(=O)N[C@H](C(=O)N[C@@H](Cc1ccc(C#Cc2cnc(N3CC4CCC(C3)N4C3COC3)nc2)cc1)[C@H](CN(Cc1c(F)cc(-c2ccn(C(F)F)n2)cc1F)NC(=O)[C@@H](NC(=O)OC)C(C)(C)C(F)(F)F)OCOP(=O)(O)O)C(C)(C)C(F)(F)F` [Compound 1, methyl ((5S,8S,9S,14S)-11-(4-(1-(difluoromethyl)-1H-pyrazol-3-yl)-2,6-difluorobenzyl)-16,16,16-trifluoro-15,15-dimethyl-8-(4-((2-(8-(oxetan-3-yl)-3,8-diazabicyclo[3.2.1]octan-3-yl)pyrimidin-5-yl)ethynyl)benzyl)-3,6,13-trioxo-9-((phosphonooxy)methoxy)-5-(1,1,1-trifluoro-2-methylpropan-2-yl)-2-oxa-4,7,11,12-tetraazahexadecan-14-yl)carbamate], in the data set on HIV-1 IIIB strain, the concentration for a half-maximal effect (EC50) turned out to be 22.3 nM. Besides, the “[Compound]” value in data set [1] was found to be 1691 nM. The half-life at 2 μM in data set [2] is 0.787 h; in data set [3], 1.36 h. Also, in the data set “pH 7 Stability Assay”, the half-life at 0.1 mg/mL is more than 480 h. Besides, in “Solubility in FaSSIF”, the concentration in solution (solubility at 2 h) was 580 µg/mL (≈ 458 µM).
For `CC(C)CN(C[C@@H](OP(=O)(O)O)[C@H](Cc1ccccc1)NC(=O)O[C@H]1CCOC1)S(=O)(=O)c1ccc(N)cc1` [Fosamprenavir, reference compound], the “[Compound]” value in data set [1] was found to be 1605 nM.
